Measured values: patent US20100286173A1 (priority 2008, published 2010)

Experiment: Measurement of logP values by HPLC on reversed phase columns (EEC directive 79/831 Annex V.A8)
Type: physicochemical
Conditions: pH 2.7, 0.1% formic acid in water / acetonitrile gradient 10% to 95%

Compound | logp | Log p | other results
CCCCCC(=O)Nc1cccc(CON=C(c2cc(C)cc(F)c2)c2nnnn2C)n1 [Example 123] | 4.14 | – | –
CCCC(=O)Nc1nc(CON=C(c2ccc(F)c(Oc3ccccc3)c2)c2nnnn2C)cs1 [Example 146] | – | 3.35 | –
Cc1ccc(C(=NOCc2cccc(N)n2)c2nnnn2C)cc1F [Example 137] | – | 1.52 | –
Cc1cc(F)cc(C(=NOCc2cccc(N)n2)c2nnnn2C)c1 [Example 135] | – | 1.46 | –
CCCCCC(=O)Nc1cccc(CON=C(c2ccc(C(F)(F)F)cc2F)c2nnnn2C)n1 [Example 26] | 4.29 | – | –
Cc1ccc(F)c(C(=NOCc2csc(N)n2)c2nnnn2C)c1 [Example 132] | 1.65 | – | –
Cn1nnnc1C(=NOCc1cccc(N)n1)c1ccc(C(F)(F)F)cc1F (single isomer, unassigned) [Example 141] | – | 1.82 | –
Cc1ccc(C(F)(F)F)cc1C(=NOCc1cccc(N)n1)c1nnnn1C [Example 124] | 1.73 | – | –
CCCCCC(=O)Nc1cccc(CON=C(c2ccc(C)c(F)c2)c2nnnn2C)n1 (single isomer, unassigned) [Example 102] | 4.21 | – | –
CCCCCOC(=O)Nc1cccc(CON=C(c2ccc(C(F)(F)F)cc2F)c2nnnn2C)n1 (single isomer, unassigned) [Example 24] | 4.73 | – | –
Cn1nnc(C(=NOCc2csc(N)n2)c2ccc(F)c(Oc3ccccc3)c2)n1 [Example 140] | – | 2.23 | –
COc1cccc(CC(=O)Nc2cccc(CON=C(c3ccc(F)c(C)c3)c3nnnn3C)n2)c1 [Example 60] | 3.72 | – | –
Cc1cc(C(=NOCc2csc(NC(=O)OC(C)(C)C)n2)c2nnnn2C)ccc1F [Example 150, tert-butyl {4-[({[(4-fluoro-3-methylphenyl)(1-methyl-1H-tetrazol-5-yl)methylidene]amino}oxy)methyl]-1,3-thiazol-2-yl}carbamate] | – | – | chromatographic logP (reversed phase HPLC column, read-out: Log p): 3.89
CCCCCC(=O)Nc1cccc(CON=C(c2ccc(C)c(C(F)(F)F)c2)c2nnnn2C)n1 [Example 89] | 4.56 | – | –
Cc1cc(C(=NOCc2csc(N)n2)c2nnnn2C)ccc1F [Example 163] | – | 1.75 | –
CCCCCC(=O)Nc1cccc(CON=C(c2ccc(F)c(C(F)(F)F)c2)c2nnnn2C)n1 [Example 104] | 4.36 | – | –
C=CCOC(=O)Nc1cccc(CON=C(c2ccc(F)c(C)c2)c2nnnn2C)n1 [Example 56] | 3.63 | – | –
CCCCCOC(=O)Nc1cccc(CON=C(c2ccc(Cl)c(C(F)(F)F)c2)c2nnnn2C)n1 [Example 88] | 5.14 | – | –
CCCCCOC(=O)Nc1cccc(CON=C(c2cc(C(F)(F)F)ccc2C)c2nnnn2C)n1 (single isomer, unassigned) [Example 110] | 4.84 | – | –
Cc1nc(N)cc(CON=C(c2ccc(F)c(Oc3ccccc3)c2)c2nnn(C)n2)n1 [Example 139] | – | 1.73 | –
CCCCCOC(=O)Nc1cccc(CON=C(c2cc(C)ccc2F)c2nnnn2C)n1 [Example 121] | 4.19 | – | –
Cc1ccc(C(=NOCc2cccc(NC(=O)CC(C)C)n2)c2nnnn2C)c(Cl)c1 [Example 46] | 3.73 | – | –
CCCCCOC(=O)Nc1cccc(CON=C(c2ccc(OC(F)(F)F)cc2C)c2nnnn2C)n1 (single isomer, unassigned) [Example 97] | 5.11 | – | –
CC(C)C(=O)Nc1cccc(CON=C(c2ccc(C(F)(F)F)cc2F)c2nnnn2C)n1 (single isomer, unassigned) [Example 28] | 3.48 | – | –
CCCCCC(=O)Nc1cccc(CON=C(c2ccc(C)cc2F)c2nnnn2C)n1 [Example 115] | 3.92 | – | –
Cc1ccc(C(=NOCc2cccc(N)n2)c2nnnn2C)cc1C(F)(F)F [Example 162] | – | 2.10 | –
Cn1nnnc1C(=NOCc1cccc(N)n1)c1ccc(C(F)(F)F)c(Cl)c1 [Example 134] | – | 1.9 | –
Cc1cc(C(=NOCc2cccc(NC(=O)CCOc3ccccc3)n2)c2nnnn2C)ccc1F [Example 57] | 3.87 | – | –
Cc1ccc(C(F)(F)F)cc1C(=NOCc1cccc(NC(=O)CC(C)C)n1)c1nnnn1C [Example 64] | 3.94 | – | –
